Among the test systems are MCF7 breast; UACC-257 melanoma; SF-539 CNS; SR leukemia; SK-MEL-2 melanoma; SK-MEL-28 melanoma; NCI/ADR-RES ovarian; HOP-62 NSCLC; SK-OV-3 ovarian; DU-145 prostate; NCI-H23 lung; OVCAR-3 ovarian; HS 578T breast; RPMI-8226 leukemia; NCI-H226 lung; HCT-15 colon; HOP-92 NSCLC; M14 melanoma.
What all share (assay): inhibition of tumour cell growth, NCI panel, 48 h

Structures are written as SMILES.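 Method: 48-hour compound exposure of cells in 96-well plates, five concentrations, linear interpolation of endpoints. TGI denotes the concentration required for complete inhibition of growth.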

Our source for the TGI values is PubChem BioAssay (NCI).

As to `NC(CCC(=O)NC(CSC(=O)N(O)c1ccc(Br)cc1)C(=O)NCC(=O)O)C(=O)O` (stereo not drawn), the TGI was above 50 µM with MCF7 breast; above 100 µM with UACC-257 melanoma; above 100 µM in the experiment with SF-539 CNS; above 100 µM in the experiment on SR leukemia; above 100 µM in the experiment on SK-MEL-2 melanoma; above 100 µM in the experiment with SK-MEL-28 melanoma. Also, the TGI with NCI/ADR-RES ovarian was above 50 µM; in the experiment on HOP-62 NSCLC, above 100 µM; in the experiment on SK-OV-3 ovarian, above 100 µM; in the experiment with DU-145 prostate, above 50 µM; in the experiment with NCI-H23 lung, above 100 µM; in the experiment on OVCAR-3 ovarian, above 100 µM. For the same molecule, the TGI in the experiment with HS 578T breast is above 50 µM; with RPMI-8226 leukemia, above 100 µM; with NCI-H226 lung, above 100 µM; with HCT-15 colon, above 100 µM; in the experiment with HOP-92 NSCLC it was above 100 µM; in the experiment on M14 melanoma, above 100 µM.
For `COc1cccc(CCn2c(N)c(-c3ccccc3)c3ccc([N+](=O)[O-])cc3c2=O)c1`, the TGI in the experiment with MCF7 breast amounted to 12.7 µM; in the experiment on UACC-257 melanoma, 40.8 µM; in the experiment on SF-539 CNS, 6.28 µM; in the experiment with SR leukemia, 31.6 µM; in the experiment with SK-MEL-2 melanoma, 48.4 µM; in the experiment with SK-MEL-28 melanoma, 50 µM. In addition, the TGI was 5.21 µM in the experiment with NCI/ADR-RES ovarian; 24.4 µM in the experiment with HOP-62 NSCLC; 23.3 µM with SK-OV-3 ovarian; 31.6 µM in the experiment on DU-145 prostate; 8.47 µM with NCI-H23 lung; 6.51 µM in the experiment on OVCAR-3 ovarian. Also, the TGI with HS 578T breast turned out to be 5.25 µM; in the experiment with RPMI-8226 leukemia it was 5 µM; in the experiment on NCI-H226 lung, 11.7 µM; in the experiment with HCT-15 colon, 27.9 µM; in the experiment with HOP-92 NSCLC it was 31.2 µM; in the experiment with M14 melanoma it was 24.3 µM.
On to `COn1cc(C=O)c2ccccc21`, for which the TGI is above 100 µM with MCF7 breast; above 100 µM with UACC-257 melanoma; above 100 µM in the experiment with SF-539 CNS; above 71.4 µM with SR leukemia; above 100 µM in the experiment with SK-MEL-2 melanoma; above 100 µM in the experiment on SK-MEL-28 melanoma. Besides, the TGI in the experiment with NCI/ADR-RES ovarian, in the experiment with HOP-62 NSCLC, with SK-OV-3 ovarian, with DU-145 prostate, in the experiment with NCI-H23 lung and in the experiment with OVCAR-3 ovarian was above 100 µM throughout. Also, the TGI in the experiment on HS 578T breast was above 100 µM; with RPMI-8226 leukemia it was above 100 µM; with NCI-H226 lung it was above 84.9 µM; in the experiment on HCT-15 colon, above 100 µM; in the experiment on HOP-92 NSCLC, above 100 µM; with M14 melanoma, above 100 µM.
Consider `CO[C@H]1[C@@H](O)[C@@H](C)O[C@@H](O[C@H]2CC[C@@]3(C)[C@H](CC[C@@H]4[C@@H]3CC[C@]3(C)[C@@H](C5=CC(=O)OC5)[C@@H](OC(C)=O)C[C@]43O)C2)[C@@H]1O`, for which the TGI was above 50 µM in the experiment on MCF7 breast; 0.239 µM with UACC-257 melanoma; 0.091 µM with SF-539 CNS; above 50 µM in the experiment with SR leukemia; 0.345 µM in the experiment with SK-MEL-2 melanoma; above 50 µM with SK-MEL-28 melanoma. For the same molecule, the TGI came out at 0.175 µM in the experiment with NCI/ADR-RES ovarian; 0.0878 µM with HOP-62 NSCLC; 0.188 µM in the experiment on SK-OV-3 ovarian; 0.0589 µM in the experiment on DU-145 prostate; 0.139 µM in the experiment on NCI-H23 lung; 0.0905 µM with OVCAR-3 ovarian. In addition, the TGI in the experiment on HS 578T breast is 0.124 µM; in the experiment with RPMI-8226 leukemia it was above 16.2 µM; in the experiment on NCI-H226 lung it was 0.411 µM; in the experiment on HCT-15 colon, 0.292 µM; in the experiment on HOP-92 NSCLC it was 0.577 µM; in the experiment with M14 melanoma, 0.189 µM.
With `O=C1/C(=C\c2ccc([N+](=O)[O-])o2)SC2N=C(COc3ccc(Cl)cc3)NN12` (stereo not drawn), the TGI in the experiment on MCF7 breast is 4.8 µM; with UACC-257 melanoma, 16.9 µM; in the experiment on SF-539 CNS, 15.5 µM; with SR leukemia, above 100 µM; in the experiment with SK-MEL-2 melanoma, 37.2 µM; with SK-MEL-28 melanoma, 17.9 µM. Moreover, the TGI is 42.9 µM with NCI/ADR-RES ovarian; 41.8 µM with HOP-62 NSCLC; 38.8 µM with SK-OV-3 ovarian; 27.3 µM in the experiment with DU-145 prostate; 35 µM in the experiment on NCI-H23 lung; 18.9 µM in the experiment with OVCAR-3 ovarian. Also, the TGI with HS 578T breast is above 100 µM; in the experiment on RPMI-8226 leukemia it was above 100 µM; in the experiment on NCI-H226 lung, 41.3 µM; in the experiment with HCT-15 colon, 4.77 µM; with HOP-92 NSCLC it was 4.49 µM; in the experiment on M14 melanoma, 13.2 µM.
With `COc1cccc(OC)c1/C=C1\OC(=O)c2cccc(OC)c21`, the TGI in the experiment with MCF7 breast was above 100 µM; in the experiment on UACC-257 melanoma, above 100 µM; with SF-539 CNS, 6.21 µM; with SR leukemia, above 24.3 µM; in the experiment on SK-MEL-2 melanoma, above 30.1 µM; in the experiment with SK-MEL-28 melanoma, above 100 µM. Further, the TGI in the experiment on NCI/ADR-RES ovarian is above 100 µM; in the experiment on HOP-62 NSCLC, 56 µM; in the experiment with SK-OV-3 ovarian, above 100 µM; in the experiment on DU-145 prostate, above 100 µM; in the experiment on NCI-H23 lung it was above 100 µM; in the experiment with OVCAR-3 ovarian, 13.5 µM. Further, the TGI with HS 578T breast was 26.7 µM; in the experiment with RPMI-8226 leukemia it was above 100 µM; with NCI-H226 lung, above 29.5 µM; in the experiment with HCT-15 colon, above 100 µM; with HOP-92 NSCLC it was above 63 µM; in the experiment with M14 melanoma, above 58.9 µM.
In the case of `Cc1cccc(/C=N/NC(=S)NCCc2ccccn2)n1`, the TGI in the experiment with MCF7 breast was above 100 µM; in the experiment with UACC-257 melanoma, above 100 µM; with SF-539 CNS, above 73.3 µM; in the experiment on SR leukemia it was above 100 µM; with SK-MEL-2 melanoma it was above 100 µM; in the experiment with SK-MEL-28 melanoma, above 100 µM. The TGI in the experiment on NCI/ADR-RES ovarian was above 73.7 µM; in the experiment on HOP-62 NSCLC it was above 75.1 µM; with SK-OV-3 ovarian it was 43.5 µM; in the experiment on DU-145 prostate it was above 86.3 µM; in the experiment on NCI-H23 lung it was above 100 µM; in the experiment on OVCAR-3 ovarian it was above 100 µM. Also, the TGI with HS 578T breast was above 100 µM; in the experiment on RPMI-8226 leukemia, above 93 µM; with NCI-H226 lung, 66.3 µM; with HCT-15 colon it was above 100 µM; in the experiment with HOP-92 NSCLC it was above 100 µM; in the experiment with M14 melanoma, 33.6 µM.
In the case of `Cc1cc(C)cc(C(=N)c2ccccc2Cc2cccc3ccccc23)c1`, the TGI in the experiment on MCF7 breast is 32.2 µM; in the experiment on UACC-257 melanoma it was 64.1 µM; in the experiment on SF-539 CNS it was 30 µM; in the experiment with SR leukemia, 41.3 µM; in the experiment with SK-MEL-2 melanoma, above 100 µM; with SK-MEL-28 melanoma, 34.7 µM. The TGI amounted to 46.3 µM with NCI/ADR-RES ovarian; 32.2 µM with HOP-62 NSCLC; 41.5 µM in the experiment on SK-OV-3 ovarian; 29.7 µM in the experiment with DU-145 prostate; 34.1 µM in the experiment on NCI-H23 lung; 32.9 µM in the experiment with OVCAR-3 ovarian. Besides, the TGI in the experiment with HS 578T breast was found to be 21.7 µM; in the experiment on RPMI-8226 leukemia, 67 µM; in the experiment on NCI-H226 lung, 29.3 µM; in the experiment with HCT-15 colon it was 32.2 µM; in the experiment on HOP-92 NSCLC it was 29 µM; in the experiment with M14 melanoma, 40.1 µM.
For `Cc1ccc(S(=O)(=O)C2=Cc3ccc(C(F)(F)F)cc3C2(O)c2cccc(C(F)(F)F)c2)cc1` (stereo not drawn), the TGI in the experiment with MCF7 breast is 4.86 µM; in the experiment on UACC-257 melanoma, 3.93 µM; in the experiment with SF-539 CNS, 3.84 µM; in the experiment on SR leukemia, 8.14 µM; with SK-MEL-2 melanoma, 3.57 µM; in the experiment with SK-MEL-28 melanoma, 3.75 µM. Moreover, the TGI with NCI/ADR-RES ovarian is 8.51 µM; in the experiment with HOP-62 NSCLC, 18.8 µM; with SK-OV-3 ovarian, 28.2 µM; with DU-145 prostate it was 10.3 µM; in the experiment on NCI-H23 lung it was 6.26 µM; with OVCAR-3 ovarian, 3.01 µM. Also, the TGI with HS 578T breast was above 27.2 µM; with RPMI-8226 leukemia it was above 23 µM; in the experiment on NCI-H226 lung it was 4.26 µM; in the experiment with HCT-15 colon, 4.27 µM; in the experiment with HOP-92 NSCLC it was 4.17 µM; in the experiment on M14 melanoma it was 4.83 µM.
For `CCN(CC)c1ccc2cc(-c3nnc(-c4ccccc4)o3)c(=O)oc2c1`, the TGI in the experiment on MCF7 breast was above 100 µM; with UACC-257 melanoma, above 100 µM; in the experiment on SF-539 CNS it was above 37.5 µM; in the experiment on SR leukemia, above 100 µM; in the experiment with SK-MEL-2 melanoma it was above 87.2 µM; in the experiment with SK-MEL-28 melanoma it was above 100 µM. The TGI with NCI/ADR-RES ovarian is above 100 µM; in the experiment on HOP-62 NSCLC it was above 74.1 µM; in the experiment on SK-OV-3 ovarian, 21.2 µM; in the experiment with DU-145 prostate, above 100 µM; in the experiment on NCI-H23 lung, above 100 µM; in the experiment on OVCAR-3 ovarian it was 37.1 µM. Also, the TGI with HS 578T breast is above 100 µM; with RPMI-8226 leukemia it was above 100 µM; in the experiment with NCI-H226 lung, above 70.7 µM; in the experiment on HCT-15 colon, above 100 µM; with HOP-92 NSCLC, above 100 µM; in the experiment with M14 melanoma it was above 100 µM.
As to `C=CCNC1=C2C[C@@H](C)C[C@@H](OC)[C@@H](OC(=O)CCCN)[C@H](C)/C=C(\C)[C@@H](OC(N)=O)[C@H](OC)/C=C\C=C(/C)C(=O)NC(=CC1=O)C2=O`, the TGI was 19.4 µM in the experiment with MCF7 breast; 31.9 µM with UACC-257 melanoma; 29.9 µM in the experiment with SF-539 CNS; above 79 µM with SR leukemia; 31 µM in the experiment on SK-MEL-2 melanoma; 41.9 µM in the experiment on SK-MEL-28 melanoma. Further, the TGI in the experiment on NCI/ADR-RES ovarian is above 100 µM; in the experiment on HOP-62 NSCLC, 18.9 µM; with SK-OV-3 ovarian it was 28.7 µM; in the experiment on DU-145 prostate, 38.3 µM; with NCI-H23 lung it was 29.6 µM; with OVCAR-3 ovarian, 32.8 µM. Besides, the TGI with HS 578T breast came out at 49.5 µM; in the experiment on RPMI-8226 leukemia, 46.9 µM; in the experiment on NCI-H226 lung it was 36.3 µM; in the experiment with HCT-15 colon, 41.2 µM; in the experiment on HOP-92 NSCLC, 29.3 µM; with M14 melanoma, 28.7 µM.
